Results as given in ChEMBL document CHEMBL4840307, “Synthesis and biological evaluation of 1-(4-(piperazin-1-yl)phenyl)pyridin-2(1H)-one derivatives as potential SSRIs” (Eur J Med Chem, 2021).
One block for each compound: values may come before it. Activity calls are given as the source filed them. The calls are words filed in the database; no cut-off is given here.

How the values were obtained:
[1] = target: Sodium-dependent serotonin transporter (Rattus norvegicus, UniProt P31652); assay: Inhibition of serotonin transporter expressed in rat brain tissue assessed as inhibition of [3H]-5-hydroxytryptamine reuptake measured after 15 mins by scintillation counting analysis; type: tissue-based
[2] = target: T1, 5-hydroxytryptamine receptor 3A (Homo sapiens, UniProt P46098); assay: Inhibition of 5-HT3 (unknown origin)
T1 sequence (P46098 whole entry): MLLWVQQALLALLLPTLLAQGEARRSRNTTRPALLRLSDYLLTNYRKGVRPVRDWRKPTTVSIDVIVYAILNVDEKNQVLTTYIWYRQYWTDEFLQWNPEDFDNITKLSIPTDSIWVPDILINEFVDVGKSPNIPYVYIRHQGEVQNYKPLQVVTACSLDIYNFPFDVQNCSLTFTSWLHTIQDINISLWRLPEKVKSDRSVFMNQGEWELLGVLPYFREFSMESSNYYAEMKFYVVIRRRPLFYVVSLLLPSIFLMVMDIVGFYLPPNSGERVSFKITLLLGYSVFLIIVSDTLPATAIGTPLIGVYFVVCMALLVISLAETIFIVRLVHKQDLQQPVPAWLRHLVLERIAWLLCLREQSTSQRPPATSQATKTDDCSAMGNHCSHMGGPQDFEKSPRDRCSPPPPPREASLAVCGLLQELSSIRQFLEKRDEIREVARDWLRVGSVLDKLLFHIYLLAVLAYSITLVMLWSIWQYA

[3] = Metabolic stability in rat liver microsomes assessed as half life incubated for 60 mins by LC-MS/MS analysis; type: ADME, Microsome
[4] = Cmax in Sprague-Dawley rat at 2 mg/kg, iv measured by LC-MS/MS analysis; type: ADME, organism-based; design: route intravenous, dose 2 mg/kg; details: in vivo
[5] = target: T2, 5-hydroxytryptamine receptor 1A (Homo sapiens, UniProt P08908); assay: Inhibition of 5-HT1a (unknown origin)
T2 sequence (P08908 whole entry): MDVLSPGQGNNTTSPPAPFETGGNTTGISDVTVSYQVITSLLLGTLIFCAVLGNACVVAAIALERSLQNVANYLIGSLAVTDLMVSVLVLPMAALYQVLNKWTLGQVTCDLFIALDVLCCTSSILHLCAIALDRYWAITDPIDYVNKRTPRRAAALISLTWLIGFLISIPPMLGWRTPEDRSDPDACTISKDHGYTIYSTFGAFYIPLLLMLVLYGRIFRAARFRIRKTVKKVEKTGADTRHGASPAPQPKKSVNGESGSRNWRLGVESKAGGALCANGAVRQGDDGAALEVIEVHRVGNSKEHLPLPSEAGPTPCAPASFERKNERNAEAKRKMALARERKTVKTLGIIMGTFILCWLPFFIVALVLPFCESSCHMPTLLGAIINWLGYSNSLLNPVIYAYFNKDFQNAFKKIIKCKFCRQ

[6] = Metabolic stability in rat liver microsomes assessed as clearance incubated for 60 mins by LC-MS/MS analysis; type: ADME, Microsome; details: read-out: CLH
[7] = AUC (0 to t) in Sprague-Dawley rat at 2 mg/kg, iv measured by LC-MS/MS analysis; type: ADME, organism-based; design: dose 2 mg/kg; details: in vivo
[8] = AUC (0 to t) in Sprague-Dawley rat at 5 mg/kg, po measured by LC-MS/MS analysis; type: ADME, organism-based; design: dose 5 mg/kg; details: in vivo
[9] = Clearance in Sprague-Dawley rat at 2 mg/kg, iv measured by LC-MS/MS analysis; type: ADME, organism-based; details: in vivo
[10] = Half life in Sprague-Dawley rat at 2 mg/kg, iv measured by LC-MS/MS analysis; type: ADME, organism-based; details: in vivo
[11] = target: T3, 5-hydroxytryptamine receptor 2C (Homo sapiens, UniProt P28335); assay: Inhibition of 5-HT2c (unknown origin)
T3 sequence (P28335 whole entry): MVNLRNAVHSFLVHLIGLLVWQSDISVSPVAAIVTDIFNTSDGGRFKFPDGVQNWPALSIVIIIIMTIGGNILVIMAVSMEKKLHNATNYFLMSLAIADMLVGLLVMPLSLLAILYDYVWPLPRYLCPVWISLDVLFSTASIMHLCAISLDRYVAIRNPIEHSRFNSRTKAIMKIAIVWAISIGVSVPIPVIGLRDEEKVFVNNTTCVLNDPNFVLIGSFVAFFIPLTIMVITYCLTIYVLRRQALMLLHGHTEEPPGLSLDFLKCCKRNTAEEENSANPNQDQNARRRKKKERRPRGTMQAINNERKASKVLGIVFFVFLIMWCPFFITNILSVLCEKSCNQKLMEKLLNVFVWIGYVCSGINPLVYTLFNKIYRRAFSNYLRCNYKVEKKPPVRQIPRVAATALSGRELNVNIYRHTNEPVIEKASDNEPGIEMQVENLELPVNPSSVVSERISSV

[12] = target: 5-hydroxytryptamine receptor 2A (Homo sapiens, UniProt P28223); assay: Inhibition of 5-HT2a (unknown origin)
[13] = Volume of distribution in steady state in Sprague-Dawley rat at 2 mg/kg, iv measured by LC-MS/MS analysis; type: ADME, organism-based; details: in vivo, read-out: Vdss
[14] = Cmax in Sprague-Dawley rat at 5 mg/kg, po measured by LC-MS/MS analysis; type: ADME, organism-based; design: route oral, dose 5 mg/kg; details: in vivo
[15] = Oral bioavailability in Sprague-Dawley rat at 5 mg/kg measured by LC-MS/MS analysis; type: ADME, organism-based; details: in vivo
[16] = Half life in Sprague-Dawley rat at 5 mg/kg, po measured by LC-MS/MS analysis; type: ADME, organism-based; details: in vivo
[17] = test system: Rattus norvegicus; assay: Antidepressant-like activity in rat assessed as reduction in immobility time at 10 ml/kg, sc measured after 60 mins by Forced swimming test; type: functional, organism-based
[18] = test system: Rattus norvegicus; assay: Antidepressant-like activity in rat assessed as reduction in immobility time at 3 ml/kg, sc measured after 60 mins by Forced swimming test; type: functional, organism-based
[19] = target: Sodium-dependent serotonin transporter (Rattus norvegicus) (UniProt P31652); assay: Antagonist activity at SERT in Sprague-Dawley rat hypothalamus assessed as PCA induced serotonin depletion at 10 mg/kg, iv measured after 30 mins by LC-MS/MS analysis; type: organism-based; details: filed as antagonist
Chain of Sodium-dependent serotonin transporter (Rattus norvegicus) (P31652 whole entry): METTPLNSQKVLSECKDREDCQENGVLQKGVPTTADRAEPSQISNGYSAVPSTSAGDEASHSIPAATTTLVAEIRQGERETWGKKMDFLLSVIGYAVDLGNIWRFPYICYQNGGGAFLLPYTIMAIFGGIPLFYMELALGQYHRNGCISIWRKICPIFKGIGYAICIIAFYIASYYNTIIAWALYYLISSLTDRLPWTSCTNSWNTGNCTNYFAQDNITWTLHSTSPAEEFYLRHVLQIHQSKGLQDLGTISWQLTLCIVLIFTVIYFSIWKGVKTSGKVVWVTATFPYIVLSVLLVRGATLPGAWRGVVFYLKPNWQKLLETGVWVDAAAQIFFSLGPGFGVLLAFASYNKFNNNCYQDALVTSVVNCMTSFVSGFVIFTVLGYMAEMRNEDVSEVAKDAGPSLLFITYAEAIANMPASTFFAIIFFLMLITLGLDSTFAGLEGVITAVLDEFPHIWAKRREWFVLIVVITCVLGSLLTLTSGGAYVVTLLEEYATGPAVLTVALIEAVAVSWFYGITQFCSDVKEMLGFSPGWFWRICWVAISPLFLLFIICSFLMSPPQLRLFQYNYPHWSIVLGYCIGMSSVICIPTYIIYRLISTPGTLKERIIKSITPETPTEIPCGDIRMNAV

Chain of 5-hydroxytryptamine receptor 2A (P28223 whole entry): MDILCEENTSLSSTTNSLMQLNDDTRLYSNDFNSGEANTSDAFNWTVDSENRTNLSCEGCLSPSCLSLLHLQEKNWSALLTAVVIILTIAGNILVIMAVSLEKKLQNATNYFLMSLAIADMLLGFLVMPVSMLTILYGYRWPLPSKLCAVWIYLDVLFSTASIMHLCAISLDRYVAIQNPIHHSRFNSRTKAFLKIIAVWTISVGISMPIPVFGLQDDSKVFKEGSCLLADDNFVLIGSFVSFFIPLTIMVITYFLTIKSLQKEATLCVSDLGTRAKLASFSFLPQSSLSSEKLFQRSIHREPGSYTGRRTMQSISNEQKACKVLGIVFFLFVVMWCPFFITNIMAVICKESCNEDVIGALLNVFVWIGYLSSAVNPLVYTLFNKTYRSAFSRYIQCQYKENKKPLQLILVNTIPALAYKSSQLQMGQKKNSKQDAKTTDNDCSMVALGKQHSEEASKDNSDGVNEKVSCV
Chain of Sodium-dependent serotonin transporter (P31652 whole entry): as the sequence (P31652 whole entry) above

Structure (SMILES): N#Cc1ccc2[nH]cc(CCCCCN3CCN(c4ccc(-n5cc(F)ccc5=O)cc4)CC3)c2c1
IC50 [1]: 6 nM

Structure (SMILES): N#Cc1ccc2[nH]cc(CCN3CCN(c4ccc(-n5cc(F)ccc5=O)cc4)CC3)c2c1
IC50 [1]: 5.51 nM

Structure (SMILES): Cc1ccn(-c2ccc(N3CCN(CCc4c[nH]c5ccc(C#N)cc45)CC3)cc2)c(=O)c1
IC50 [1]: 7.57 nM

Structure (SMILES): COc1ccn(-c2ccc(N3CCN(CCCc4c[nH]c5ccc(C#N)cc45)CC3)cc2)c(=O)c1
IC50 [1]: 4.58 nM

Structure (SMILES): N#Cc1ccc2[nH]cc(CCCCN3CCN(c4ccc5oc(C(N)=O)cc5c4)CC3)c2c1 [VILAZODONE]
half-life [3]: 0.298 h
CLint scaled [6]: 77.3 mL/min/kg

Structure (SMILES): Cc1ccn(-c2ccc(N3CCN(CCCc4c[nH]c5ccc(C#N)cc45)CC3)cc2)c(=O)c1
IC50 [1]: 2.02 nM

Structure (SMILES): N#Cc1ccc2[nH]cc(CCCN3CCN(c4ccc(-n5cc(F)ccc5=O)cc4)CC3)c2c1
IC50 [1]: 2.22 nM

Now from value to compound, other results behind:

IC50 [1]: 1.6 nM
Structure (SMILES): N#Cc1ccc2[nH]cc(CCCCN3CCN(c4ccc(-n5ccccc5=O)cc4)CC3)c2c1

IC50 [1]: 1.35 nM
Structure (SMILES): N#Cc1ccc2[nH]cc(CCCCCN3CCN(c4ccc(-n5ccccc5=O)cc4)CC3)c2c1

IC50 [2]: > 10000 nM
half-life [3]: 5.2 h
Cmax [4]: 694 ng/mL
IC50 [5]: 0.14 nM
CLint scaled [6]: 4.4 mL/min/kg
AUC(0-t) [7]: 559 ng·h/mL
AUC(0-t) [8]: 77 ng·h/mL
clearance [9]: 59.3 mL/min/kg
half-life [10]: 1.26 h
IC50 [11]: > 10000 nM
IC50 [12]: > 10000 nM
Vd [13]: 3.21 L/kg
Cmax [14]: 33.6 ng/mL
bioavailability [15]: 5.8%
half-life [16]: 2.26 h
Structure (SMILES): N#Cc1ccc2[nH]cc(CCCCN3CCN(c4ccc(-n5ccc6occc6c5=O)cc4)CC3)c2c1

IC50 [2]: > 10000 nM
half-life [3]: 0.0735 h
IC50 [5]: 1.7 nM
CLint scaled [6]: 315 mL/min/kg
IC50 [11]: > 10000 nM
IC50 [12]: > 10000 nM
Structure (SMILES): N#Cc1ccc2[nH]cc(CCCN3CCN(c4ccc(-n5ccc6ncccc6c5=O)cc4)CC3)c2c1

IC50 [1]: 10.2 nM
Structure (SMILES): N#Cc1ccc2[nH]cc(CCCN3CCN(c4ccc(-n5ccc6ccccc6c5=O)cc4)CC3)c2c1

IC50 [1]: 2.03 nM
Structure (SMILES): Cc1ccn(-c2ccc(N3CCN(CCCCc4c[nH]c5ccc(C#N)cc45)CC3)cc2)c(=O)c1

IC50 [1]: 3.75 nM
Structure (SMILES): N#Cc1ccc2[nH]cc(CCCCN3CCN(c4ccc(-n5cc(F)ccc5=O)cc4)CC3)c2c1

IC50 [2]: > 10000 nM
half-life [3]: 1.89 h
Cmax [4]: 831 ng/mL
IC50 [5]: 0.5 nM
CLint scaled [6]: 12.2 mL/min/kg
AUC(0-t) [7]: 823 ng·h/mL
AUC(0-t) [8]: 189 ng·h/mL
clearance [9]: 40.8 mL/min/kg
half-life [10]: 1.01 h
IC50 [11]: > 10000 nM
IC50 [12]: > 10000 nM
Vd [13]: 2.47 L/kg
Cmax [14]: 70.5 ng/mL
bioavailability [15]: 9.19%
Activity [19]: Active
half-life [16]: 0.82 h
Structure (SMILES): N#Cc1ccc2[nH]cc(CCCCN3CCN(c4ccc(-n5ccc6ncccc6c5=O)cc4)CC3)c2c1
Activity [17]: Active
Activity [18]: Active

IC50 [1]: 4.31 nM
Structure (SMILES): N#Cc1ccc2[nH]cc(CCCCN3CCN(c4ccc(-n5ccc6ccccc6c5=O)cc4)CC3)c2c1
